From EP4153181B1, “PHARMACEUTICAL COMPOSITIONS COMPRISING BICTEGRAVIR” (GILEAD SCIENCES, INC., priority 2020, dated 2021)

Assays:
Conditions in all cases: IV administration, mean
[1] = Plasma pharmacokinetics of BIC after single SC injection of long acting formulations (and IV infusion) in rat; assay type: in vivo, male Sprague-Dawley rat
Source text: (§1) Pharmacokinetics (PK) following a single BIC SC injection of solution and suspension formulations was characterized in male Sprague-Dawley rat, beagle dog, and cynomolgus monkey. The BIC injectable solution and both suspension formulations display extended-release PK following SC administration in all examined species and support a potential monthly or less frequent dosing regimen. […] Table 1. BIC Plasma Pharmacokinetic Parameters Following a Single Subcutaneous (SC) or Intramuscular (IM) Administration
This study investigated the pharmacokinetics of three formulations of bictegravir (BIC) by subcutaneous administration to determine the potential to deliver a long acting (LA) pharmacokinetic (PK) profile. […] The concentrations of BIC in plasma were determined with a liquid chromatography-tandem mass spectrometry (LC-MS/MS) method. […]
The intravenous dose was administered as a 30-minute infusion via a catheter implanted animals. […] Individual dose was calculated based on body weights recorded on the day of dose administration. […]
For estimation of pharmacokinetic parameters, concentrations reported as below the lower limit of quantification (BLQ) were assigned a value of zero if pre-dose and treated as missing thereafter. […]

[2] = Plasma pharmacokinetics of BIC after single SC injection of long acting formulations (and IV infusion) in dog; assay type: in vivo, beagle dog
Source text: as §1
This study investigated the pharmacokinetics of three formulations of bictegravir (BIC) by subcutaneous administration to determine the potential to deliver a long acting (LA) pharmacokinetic (PK) profile. BIC was administered by a 30-min intravenous (IV) infusion at 0.5 or 1 mg/kg and by subcutaneous (SC) injection of three LA formulations (e.g., NMP solution, HPMC suspension, and PVP suspension) at 10 mg/kg or 100 mg fixed dose to Male Beagle Dogs. The concentrations of BIC in plasma were determined with a liquid chromatography-tandem mass spectrometry (LC-MS/MS) method.
At dosing, the animals weighed between 7.98 and 11.6 kg. The animals from the SC leg with the PVP suspension were not fasted. […]
The intravenous dose was administered as a 30-minute infusion via a saphenous vein. […] Individual dose was calculated based on body weights recorded on the day of dose administration. […]

[3] = Plasma pharmacokinetics of BIC after single SC or IM injection of long acting formulations in monkey; assay type: in vivo, cynomolgus monkey

systemic elimination rate (ke1 = CL/Vss) [1]: ~ 0.0162 h^-1 | systemic elimination rate (ke1 = CL/Vss) [2]: ~ 0.302 h^-1 | systemic elimination rate (ke1 = CL/Vss) [3]: ~ 0.253 h^-1
SMILES: O=C(NCc1c(F)cc(F)cc1F)c1cn2c(c(O)c1=O)C(=O)N1[C@H]3CC[C@H](C3)O[C@@H]1C2 [BIC, (2R,5S,13aR)-8-hydroxy-7,9-dioxo-N-(2,4,6-trifluorobenzyl)-2,3,4,5,7,9,13,13a-octahydro-2,5-methanopyrido[1',2':4,5]pyrazino[2,1-b][1,3]oxazepine-10-carboxamide]
